Experimental data as given in PubChem BioAssay AID256 (DTP/NCI, 2004).
Values joined by “and” are separate entries in the source; they are usually repeats but may differ in a detail not shown here. Equal values may be shown once. Toxic doses and inconclusive results are not listed. Rule for the calls: active = survival T/C of 150% or more; inactive = T/C below 125% in these data.

System: CD2F1 mice, L1210 leukemia ip, survival T/C
Experiment: NCI In Vivo Anticancer Drug Screen. Data for tumor model L1210 Leukemia (intraperitoneal) in CD2F1 (CDF1) mice
Conditions: endpoint: mean survival time, higher = longer survival
How it was run: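 In this screen, transplantable tumors were grown in mice given either the compound or its vehicle. Results were expressed as the treated measurement relative to the control measurement.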

[1] = dose: 25.0 mg/kg/injection, schedule: Q01DX009 (ip), vehicle: saline with Tween-80
[2] = dose: 25.0 mg/kg/injection, schedule: Q04DX003 (ip), vehicle: saline with Tween-80
[3] = dose: 50.0 mg/kg/injection, schedule: Q04DX003 (ip), vehicle: saline with Tween-80
[4] = dose: 50.0 mg/kg/injection, schedule: Q01DX009 (ip), vehicle: saline with Tween-80
[5] = dose: 100.0 mg/kg/injection, schedule: Q01DX001 (ip), vehicle: saline with Tween-80
[6] = dose: 200.0 mg/kg/injection, schedule: Q01DX001 (ip), vehicle: saline with Tween-80
[7] = dose: 400.0 mg/kg/injection, schedule: Q01DX001 (ip), vehicle: saline with Tween-80
[8] = dose: 100.0 mg/kg/injection, schedule: Q04DX003 (ip), vehicle: saline with Tween-80
[9] = dose: 200.0 mg/kg/injection, schedule: Q04DX003 (ip), vehicle: saline with Tween-80
[10] = dose: 400.0 mg/kg/injection, schedule: Q04DX003 (ip), vehicle: saline with Tween-80

Measured: T/C

CCOC(=O)C(CC(C)C)NC(=O)C(Cc1ccc(N(CCCl)CCCl)cc1)NC(C)=O (configuration not stated)
inactive: dose: 0.5 mg/kg/injection, schedule: Q01DX009 (ip), vehicle: saline 95 % of control | dose: 1.0 mg/kg/injection, schedule: Q01DX009 (ip), vehicle: saline 92 % of control | dose: 1.0 mg/kg/injection, schedule: Q04DX003 (ip), vehicle: saline with Tween-80 100 % of control | dose: 2.0 mg/kg/injection, schedule: Q01DX001 (ip), vehicle: saline with Tween-80 102 % of control [middle of 4 runs] | dose: 2.0 mg/kg/injection, schedule: Q01DX009 (ip), vehicle: Klucel (hydroxypropylcellulose) (HPC) 92 % of control and 95 % of control | dose: 2.0 mg/kg/injection, schedule: Q01DX009 (ip), vehicle: saline 94 % of control | dose: 2.0 mg/kg/injection, schedule: Q04DX003 (ip), vehicle: saline with Tween-80 96 % of control and 97 % of control and 105 % of control | dose: 4.0 mg/kg/injection, schedule: Q01DX001 (ip), vehicle: saline with Tween-80 102 % of control [middle of 4 runs] | dose: 4.0 mg/kg/injection, schedule: Q01DX009 (ip), vehicle: Klucel (hydroxypropylcellulose) (HPC) 94 % of control and 95 % of control | dose: 4.0 mg/kg/injection, schedule: Q01DX009 (ip), vehicle: saline 101 % of control | dose: 4.0 mg/kg/injection, schedule: Q04DX003 (ip), vehicle: saline with Tween-80 105 % of control [middle of 4 runs] | dose: 8.0 mg/kg/injection, schedule: Q01DX001 (ip), vehicle: saline with Tween-80 100 % of control and 98 % of control and 102 % of control | dose: 8.0 mg/kg/injection, schedule: Q01DX009 (ip), vehicle: Klucel (hydroxypropylcellulose) (HPC) 94 % of control and 105 % of control | dose: 8.0 mg/kg/injection, schedule: Q01DX009 (ip), vehicle: saline 110 % of control and 95 % of control and 103 % of control | dose: 8.0 mg/kg/injection, schedule: Q04DX003 (ip), vehicle: saline with Tween-80 105 % of control [middle of 5 runs] | dose: 16.0 mg/kg/injection, schedule: Q01DX001 (ip), vehicle: saline with Tween-80 102 % of control [middle of 4 runs] | dose: 16.0 mg/kg/injection, schedule: Q01DX009 (ip), vehicle: Klucel (hydroxypropylcellulose) (HPC) 97 % of control and 111 % of control | dose: 16.0 mg/kg/injection, schedule: Q01DX009 (ip), vehicle: saline 120 % of control and 100 % of control and 121 % of control | dose: 16.0 mg/kg/injection, schedule: Q04DX003 (ip), vehicle: saline 110 % of control | dose: 32.0 mg/kg/injection, schedule: Q01DX001 (ip), vehicle: saline with Tween-80 104 % of control [middle of 4 runs] | dose: 32.0 mg/kg/injection, schedule: Q01DX001 (ip), vehicle: saline 105 % of control | dose: 32.0 mg/kg/injection, schedule: Q01DX009 (ip), vehicle: Klucel (hydroxypropylcellulose) (HPC) 114 % of control | dose: 32.0 mg/kg/injection, schedule: Q01DX009 (ip), vehicle: saline 101 % of control | dose: 32.0 mg/kg/injection, schedule: Q04DX003 (ip), vehicle: saline 118 % of control | dose: 64.0 mg/kg/injection, schedule: Q01DX001 (ip), vehicle: saline with Tween-80 114 % of control and 108 % of control and 98 % of control | dose: 64.0 mg/kg/injection, schedule: Q01DX009 (ip), vehicle: Klucel (hydroxypropylcellulose) (HPC) 119 % of control | dose: 64.0 mg/kg/injection, schedule: Q01DX009 (ip), vehicle: saline 90 % of control | dose: 128.0 mg/kg/injection, schedule: Q01DX001 (ip), vehicle: saline with Tween-80 118 % of control and 104 % of control and 106 % of control | dose: 128.0 mg/kg/injection, schedule: Q01DX009 (ip), vehicle: saline 95 % of control and 105 % of control | dose: 128.0 mg/kg/injection, schedule: Q04DX003 (ip), vehicle: saline with Tween-80 120 % of control and 92 % of control | dose: 256.0 mg/kg/injection, schedule: Q01DX009 (ip), vehicle: saline 103 % of control | dose: 256.0 mg/kg/injection, schedule: Q04DX003 (ip), vehicle: saline with Tween-80 94 % of control and 107 % of control | dose: 256.0 mg/kg/injection, schedule: Q04DX003 (ip), vehicle: saline 120 % of control | dose: 512.0 mg/kg/injection, schedule: Q01DX009 (ip), vehicle: saline 117 % of control
active: dose: 64.0 mg/kg/injection, schedule: Q01DX001 (ip), vehicle: saline 211 % of control | dose: 128.0 mg/kg/injection, schedule: Q04DX003 (ip), vehicle: saline 170 % of control | dose: 256.0 mg/kg/injection, schedule: Q01DX001 (ip), vehicle: saline 152 % of control

CC[N+](C)(CC)CCCOC(=O)C(c1ccccc1)c1ccccc1
inactive: dose: 6.25 mg/kg/injection, schedule: Q01DX009 (ip), vehicle: saline with Tween-80 96 % of control | dose: 12.5 mg/kg/injection, schedule: Q01DX009 (ip), vehicle: saline with Tween-80 96 % of control | [1] 94 % of control

CN1CCc2[nH]c3ccccc3c2C1
inactive: dose: 75.0 mg/kg/injection, schedule: Q01DX001 (ip), vehicle: other 93 % of control | dose: 100.0 mg/kg/injection, schedule: Q04DX002 (ip), vehicle: Klucel (hydroxypropylcellulose) (HPC) 95 % of control | dose: 150.0 mg/kg/injection, schedule: Q01DX001 (ip), vehicle: other 93 % of control | dose: 200.0 mg/kg/injection, schedule: Q04DX002 (ip), vehicle: Klucel (hydroxypropylcellulose) (HPC) 103 % of control

c1ccc2nc3c(cc2c1)CCC3
inactive: dose: 100.0 mg/kg/injection, schedule: Q04DX003 (ip), vehicle: saline + alcohol 95 % of control | dose: 200.0 mg/kg/injection, schedule: Q04DX003 (ip), vehicle: saline + alcohol 95 % of control

CN(C)C1CCc2ccc3ccccc3c2C1=O (configuration not stated)
inactive: dose: 12.5 mg/kg/injection, schedule: Q01DX009 (ip), vehicle: saline 105 % of control | dose: 25.0 mg/kg/injection, schedule: Q01DX009 (ip), vehicle: saline 102 % of control | dose: 50.0 mg/kg/injection, schedule: Q01DX009 (ip), vehicle: saline 105 % of control

O=C1CC2CCC1C2Cl (configuration not stated)
inactive: dose: 6.25 mg/kg/injection, schedule: Q04DX003 (ip), vehicle: saline with Tween-80 101 % of control | dose: 12.5 mg/kg/injection, schedule: Q04DX003 (ip), vehicle: saline with Tween-80 113 % of control | [2] 97 % of control | [3] 97 % of control

C/C(=C\Cl)CNC(C)C
inactive: [1] 101 % of control | [4] 100 % of control | dose: 100.0 mg/kg/injection, schedule: Q01DX001 (ip), vehicle: acetone 98 % of control

Cc1cc(N)c(S(N)(=O)=O)c([N+](=O)[O-])c1
inactive: [5] 100 % of control | [6] 97 % of control | [7] 94 % of control

CCOC(=O)C12CCCCC1=CC1(CC2)SCCS1 (configuration not stated)
inactive: dose: 100.0 mg/kg/injection, schedule: Q04DX003 (ip), vehicle: acetone 93 % of control | dose: 200.0 mg/kg/injection, schedule: Q04DX003 (ip), vehicle: acetone 91 % of control | dose: 400.0 mg/kg/injection, schedule: Q04DX003 (ip), vehicle: acetone 86 % of control

COc1nccnc1NS(=O)(=O)c1ccc(N)cc1
inactive: dose: 100.0 mg/kg/injection, schedule: Q04DX003 (ip), vehicle: saline 98 % of control | dose: 200.0 mg/kg/injection, schedule: Q04DX003 (ip), vehicle: saline 100 % of control | dose: 400.0 mg/kg/injection, schedule: Q04DX003 (ip), vehicle: saline 104 % of control

CN(C)c1nc(=[N+](C)C)ss1
inactive: [4] 104 % of control | dose: 100.0 mg/kg/injection, schedule: Q01DX009 (ip), vehicle: saline with Tween-80 101 % of control and 107 % of control | [8] 102 % of control | dose: 200.0 mg/kg/injection, schedule: Q01DX009 (ip), vehicle: saline with Tween-80 93 % of control and 107 % of control | [9] 98 % of control | dose: 400.0 mg/kg/injection, schedule: Q01DX009 (ip), vehicle: saline with Tween-80 93 % of control | [10] 90 % of control

CCOC(=O)/C(=C(\[O-])OCC)[n+]1ccccc1
inactive: [8] 97 % of control | [9] 100 % of control | [10] 100 % of control

Cc1cc(C)c(NC(=O)CC#N)cc1C
inactive: [2] 113 % of control and 93 % of control | [3] 89 % of control and 103 % of control | [5] 100 % of control | dose: 100.0 mg/kg/injection, schedule: Q04DX002 (ip), vehicle: saline with Tween-80 90 % of control | [6] 102 % of control | dose: 200.0 mg/kg/injection, schedule: Q04DX002 (ip), vehicle: saline with Tween-80 102 % of control | [7] 102 % of control | dose: 400.0 mg/kg/injection, schedule: Q04DX002 (ip), vehicle: saline with Tween-80 105 % of control | [10] 93 % of control

CCCSCC(CSCCC)(CSCCC)CSCCC
inactive: [5] 107 % of control | [6] 111 % of control | [7] 101 % of control
